These results are taken from patent US20210308065A1, “REMOTE MODULATION OF BICONTINUOUS NANOSPHERES FOR CONTROLLED DELIVERY APPLICATIONS” (Northwestern University, priority 2020, published 2021).

Series [1] relates to DN1 T cells. The series can be described thus: Vaccination with BMDC treated ex vivo with MA or MA BCN, DN1 T cell activation and proliferation. It is filed as in vivo, hCD1Tg mice. Conditions: 1 or 6 weeks after intratracheal vaccination; MA BCN vs MA pulsed BMDC. The source says: One week before the 1 and 6 week timepoints, 3e6 DN1 T cells were adoptively transferred intravenously. DLN, lung, and spleen were obtained.

Series [2] in a line: In vitro BCN degradation and release of payloads after irradiation. The class given is physicochemical. Conditions: centrifugation. As for the experimental part:
In vitro BCN degradation and Release of payloads—In vitro degradation studies of PhA BCNs were performed under irradiation. Briefly, 200 μL of PhA BCNs (1 mg/ml) was transferred in to multiple wells of a 96 well black plate and then irradiated for 2.5 min at 50 mW/cm^2. The irradiated samples were immediately collected and centrifuged at 10,000×g for 10 min. After centrifugation, the supernatants and pellets were collected separately and analyzed using DLS and TEM as described above.
In vitro release of calcein, FITC-BSA, ethyl eosin and PhA from BCNs was measured after irradiation. 200 μL of PBS containing PhA BCNs co-loaded with calcein or FITC-BSA, or PhA BCNs and ethyl eosin BCNs, were transferred in to multiple wells of a 96 well black plate and then irradiated at 50 mW/cm^2 for 1.25, 2.5, 5 and 10 minutes. Post irradiation samples were centrifuged at 10,000×g for 10 min and supernatants were collected and further analyzed for amount released as described earlier. For PhA BCNs and ethyl eosin BCNs, % transmittance was measured using an M3 plate reader.

In series [3] the test system is RAW 264.7 cells. The series can be described thus: MTT cell viability assay. It is filed as cell-based, murine. The protocol:
Cell culture—RAW 264.7 cells (murine macrophage cell line) were acquired from American Type Culture Collection (ATCC, Rockville, Md., USA) were employed for cell culture experiments.
MTT assay—RAW 264.7 cells (2×10^5 cells/mL, 100 μL) were plated in each well of a black 96-well plate and adhered overnight. The adhered cells were treated with free PhA (DMSO: PBS, 1:3) or PhA loaded BCNs (PBS) or CT BCNs or PhA-CT BCNs and incubated for 4 h. […] Post irradiation, cells were incubated for predetermined time intervals and then added with MTT (5 mg/mL in PBS, 10 μL). After 4 h MTT incubation with cells, formazan crystal deposition in each well was dissolved in DMSO (200 μL) and the absorbance was measured at 560 nm. All the samples were analyzed in quadruplicates.
The percentage cell viability was calculated as:
% cell viability=(OD of treated sample/OD of untreated sample)*100.
On the technique in general: Formazan colour is commonly taken as a measure of viable cells.

The nature of series [4]: Encapsulation efficiency in PEG-b-PPS BCNs. The class given is physicochemical. Conditions: in PEG-b-PPS BCNs by FNP; hydrophilic cargo co-encapsulated with PhA. The protocol:
Formation of PEG-b-PPS BCNs—BCNs were formed by flash nanoprecipitation (FNP) technique using a hand-driven CIJ mixer as described previously.^3, 14 10 mg of PEG-b-PPS polymer was dissolved in 500 μL of tetrahydrofuran (THF) and was impinged against 500 μL of Milli-Q water. After impingement the nascent BCNs were diluted in a 1.5 mL reservoir of Milli-Q water. THF was removed by vacuum desiccation overnight, resulting in a 5 mg/mL BCN formulation in water. In cases where hydrophobic cargo was loaded into BCNs, the cargo was dissolved along with the 10 mg of PEG-b-PPS polymer in the 500 μL of THF used for impingement. In cases where hydrophilic cargo was loaded into BCNs, the cargo was dissolved in the 500 μL of water used for impingement.
Loading and determination of encapsulation efficiency—The loading of hydrophilic molecules (Calcein, FITC-BSA, BODIPY-BSA) or hydrophobic molecules (Pheophorbide A or Camptothecin) in to BCNs was performed using FNP technique as stated above. Here, 500 μL of Calcien (1 mM) or fluorophore-BSA (2 mg/mL) in water was impinged against 500 μL of Pheophorbide A (0.2 mg/ml) or Camptothecin (0.6 mg/ml) in THF into an aqueous reservoir to form BCNs. After removal of THF via desiccation, BCNs were washed two times with distilled water by centrifugation (10,000×g, 10 min) to remove all the unencapsulated payloads and further resuspended in PBS or water for analysis. The amount of Pheophorbide A was determined by calculating absorbance at 666 nm. Calcein, FITC/BODIPY-BSA, and Camptothecin loading was analyzed by measuring fluorescence intensities at 470/509, 495/525, and 359/434 (excitation/emission, nm), respectively.

For series [5] the following is noted: cited from earlier work.

On to mycolic acid [MA], for which the “Activation and proliferation of DN1 T cells after vaccination with treated BMDC” value in series [1] is “differences in activation and proliferation of DN1 T cells 6 weeks after vaccination, but not 1 week after vaccination”.

`CCOC(=O)c1ccccc1-c1c2cc(Br)c(=O)c(Br)c-2oc2c(Br)c([O-])c(Br)cc12.[K+]` [ethyl eosin]: the “Release of photo-oxidizer into the supernatant after irradiation of loaded BCNs” value in series [2] is reported as “comparably ineffective”.

On to `CC[C@@]1(O)C(=O)OCc2c1cc1n(c2=O)Cc2cc3ccccc3nc2-1` [free camptothecin, camptothecin], for which the “Cytotoxicity (MTT viability)” value is “significantly more cytotoxic than non-irradiated CT-PhA-BCNs” in series [3] (free drug, camptothecin 0.63 μg/mL, 48 h); “dose-dependent cytotoxicity at 24 h” in series [3] (non-irradiated, 24 h, three camptothecin concentrations (0.63, 1.56, 3.1 μg/mL)); “high cytotoxicity regardless of concentration at 48 h” in series [3] (non-irradiated, 48 h, three camptothecin concentrations).

In turn, “FITC-BSA: fluorescein-tagged bovine serum albumin” gave an Encapsulation efficiency in series [4] of 34±4%.

In the case of `O=C(O)CN(CC(=O)O)Cc1cc2c(cc1O)Oc1cc(O)c(CN(CC(=O)O)CC(=O)O)cc1C21OC(=O)c2ccccc21` [calcein], in series [4], the Encapsulation efficiency came out at 6.7±1.9%.

What is called logP is the decadic logarithm of the partition coefficient of the neutral form, usually between octanol and water. Consider pheophorbide A [PhA], for which the Encapsulation efficiency in series [4] stood at 80.7±2.2%. Further, the “Release of photo-oxidizer into the supernatant after irradiation of loaded BCNs” value in series [2] is reported as “significantly greater amounts than the comparably ineffective ethyl eosin”. Further, in series [3] (RAW 264.7 cells, with irradiation vs non-irradiated, 12 h after irradiation), the “Cell viability (MTT)” value is given as “significant cell death”. Also, the logP in series [5] is 6.93.
